Reference: paper PMC6285983, “Novel broad spectrum virucidal molecules against enveloped viruses” (PLoS ONE, 2018)

Tests used:
in vitro = conditions: African green monkey
HSV-2 = HSV-2 plaquing efficiency assay, compound preincubated with virus 1 h at 37°C; assay type: cell-based; conditions: Human alphaherpesvirus 2, HSV-2, Vero cells, 1 h pre-incubation virus/compound; for EC50: plaques at 24 h, read-out: EC50 (95% C.I.); for EC90: read-out: EC90 (95% C.I.)
[1] = In vitro lipoperoxidation test (TBA assay, MDA); conditions: 0.05% w/w added to liposomes, exposure to compound 9d
[2] = Cell viability MTS assay on Vero cells; conditions: African green monkey, CC50, Vero cells, MTS
[3] = test system: HSV-2 acyclovir resistant strain; experiment: microbe, parasite or virus in culture; assay type: cell-based; conditions: Human alphaherpesvirus 2

Molecule	CC50 (in vitro) [nM]	EC50 (HSV-2) [nM]	EC90 (HSV-2) [nM]	reduction of the peroxidation of linoleic acid [1] [%]	CC50 [2] [nM]	melting point	EC50 [3] [nM]
O=C1NC(=S)N(CCc2ccccc2)C(=O)/C1=C\c1ccc(-c2ccc(C(=O)O)c(O)c2)o1 [Compound 15b, (Z)-4-(5-((4,6-dioxo-1-phenethyl-2-thioxotetrahydropyrimidin-5(2H)-ylidene)methyl)furan-2-yl)-2-hydroxybenzoic acid]	> 300000	48.4	10900	–	–	–	–
(±)-α-tocopherol [reference compound]	–	–	–	50.5	–	–	–
COc1ccc(CCN2C(=O)/C(=C/c3ccc(-c4ccc(C(=O)O)c(O)c4)o3)SC2=S)cc1 [Compound 9c, (Z)-2-hydroxy-4-(5-((3-(4-methoxyphenethyl)-4-oxo-2-thioxothiazolidin-5-ylidene)methyl)furan-2-yl)benzoic acid]	–	60	145	–	9870	265 °C (dec.)	–
O=C(O)c1ccc(-c2ccc(/C=C3\SC(=S)N(CCc4c[nH]c5ccccc45)C3=O)o2)cc1O [Compound 9a, (Z)-4-(5-((3-(2-(1H-Indol-3-yl)ethyl)-4-oxo-2-thioxothiazolidin-5-ylidene)methyl)furan-2-yl)-2-hydroxybenzoic acid]	–	630	2050	–	291000	254 °C (dec.)	–
O=C1NC(=S)N(Cc2ccccc2)C(=O)/C1=C\c1ccc(-c2ccc(C(=O)O)c(O)c2)o1 [Compound 15a, (Z)-4-(5-((1-benzyl-4,6-dioxo-2-thioxotetrahydropyrimidin-5(2H)-ylidene)methyl)furan-2-yl)-2-hydroxybenzoic acid]	> 300000	1030	57000	–	–	–	–
O=C1/C(=C/c2ccc(-c3cc(C(F)(F)F)ccc3Cl)o2)SC(=S)N1Cc1ccc(F)cc1 [Compound 9e, (Z)-5-((5-(2-chloro-5-(trifluoromethyl)phenyl)furan-2-yl)methylene)-3-(4-fluorobenzyl)-2-thioxothiazolidin-4-one]	–	767	5740	–	> 300000	–	–
Nc1nc2c(ncn2COCCO)c(=O)[nH]1 [acyclovir, reference compound]	–	–	–	–	–	–	319000
O=C(O)c1ccc(-c2ccc(/C=C3\SC(=S)N(CCc4ccc(Br)cc4)C3=O)o2)cc1O [Compound 9b, (Z)-4-(5-((3-(4-bromophenethyl)-4-oxo-2-thio-oxothiazolidin-5-ylidene)methyl)furan-2-yl)-2-hydroxybenzoic acid]	–	120	404	–	13500	275 °C (dec.)	–
